Source: patent US9221756B2, “Pyrrole derivatives” (priority 2011, dated 2015)
Read-outs that look alike come from different tables or passages of the source.

Columns and labels:
[1] = biological target: pneumolysin (Streptococcus pneumoniae serotype 2, UniProt Q04IN8); experiment: Inhibition of the haemolytic activity of pneumolysin (sheep erythrocytes); assay type: cell-based; settings: class symbols of Table 1
[2] = Conversion of prodrug derivatives to active inhibitors in mouse plasma; assay type: in vitro ADME; settings: 37° C., 10 μM start, prodrug remaining; for [ ] (μM) t0 min. Prodrug: 0 min; for [ ] (μM) t15 min. Prodrug: 15 min; for [ ] (μM) t30 min. Prodrug: 30 min; for [ ] (μM) t60 min. Prodrug: 60 min; for [ ] (μM) t120 min. Prodrug: 120 min
Procedure: The samples were then analysed by LC-MS/MS to obtain the amount of active compound appearing and prodrug derivative remaining over time. The mouse plasma assay system is considered to be a good model for human behaviour. Nevertheless data obtained in a human plasma assay system was obtained in some cases.
Prodrug derivatives were assessed in the mouse and human plasma stability assay at a concentration of 10 μM. Test compounds were diluted in DMSO to a final stock concentration of 10 mM. For the purpose of the assay, the stocks prepared were further diluted in DMSO to a concentration of 400 μM and […] were added to 195 μl of mouse or human plasma (pH 7.4) and then incubated at 37° C. The final concentration of DMSO in the plate was 2.5% (v/v). Reactions were terminated at 0, 15, 30, 60 and 120 min after incubation by adding 400 μl of acetonitrile containing 0.55 μM metoprolol and 1% (v/v) formic acid. The plate was then centrifuged at 3000 rpm, for 45 min, at 4° C. 80 μl of supernatant were transferred into a conical bottom 96 well glass coated plate. 40 μl of water were added prior to analysis for prodrug derivative and active species by LC-MS/MS. This assay was performed by a contract research organisation, Cyprotex Discovery Limited, UK, at the request of the inventors at Leicester.
(1) The active compound was quantified using a 6 point calibration curve prepared in deactivated mouse and human plasma. (2) The percentage of parent compound remaining at each time point relative to 0 min sample was calculated from LC-MS/MS peak area ratios (compound peak area/internal standard peak area). This percentage was then used to determine the concentration of the parent compound at each time point in reference to the starting concentration (10 μM) at time 0 min.

[3] = inhibition of pneumolysin-induced haemolysis of sheep erythrocytes, read-out: IC50
[4] = IC50, inhibition of pneumolysin-induced haemolysis of sheep erythrocytes

Chain of pneumolysin (Q04IN8 whole entry): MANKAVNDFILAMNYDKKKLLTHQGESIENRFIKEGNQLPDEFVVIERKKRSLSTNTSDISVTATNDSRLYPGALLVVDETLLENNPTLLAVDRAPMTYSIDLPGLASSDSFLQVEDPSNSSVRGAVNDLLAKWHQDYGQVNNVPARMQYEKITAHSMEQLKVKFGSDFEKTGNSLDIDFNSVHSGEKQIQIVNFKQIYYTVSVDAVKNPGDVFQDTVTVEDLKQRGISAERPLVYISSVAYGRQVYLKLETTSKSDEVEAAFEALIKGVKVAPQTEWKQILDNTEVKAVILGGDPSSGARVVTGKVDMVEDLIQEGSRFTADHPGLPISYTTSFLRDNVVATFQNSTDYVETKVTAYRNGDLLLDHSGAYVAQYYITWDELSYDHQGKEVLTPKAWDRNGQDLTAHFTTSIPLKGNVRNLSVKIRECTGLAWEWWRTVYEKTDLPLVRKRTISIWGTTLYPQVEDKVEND

| SMILES | IC50 [1, 3] | [ ] (μM) t0 min. Prodrug [2] | [ ] (μM) t15 min. Prodrug [2] | [ ] (μM) t30 min. Prodrug [2] | [ ] (μM) t60 min. Prodrug [2] | [ ] (μM) t120 min. Prodrug [2] | IC50 [1, 4] |
| --- | --- | --- | --- | --- | --- | --- | --- |
| CCOC(=O)c1c(OP(=O)(OCC)OCC)c(OP(=O)(OCC)OCC)c(C(=O)N(C)C)n1-c1ccc(OC)cc1 [UL1-092, ethyl 3,4-bis((diethoxyphosphoryl)oxy)-5-(dimethylcarbamoyl)-1-(4-methoxyphenyl)-1H-pyrrole-2-carboxylate] | > 60 µM | 10 µM | 5.12 µM | 4.67 µM | 4.59 µM | 3.70 µM | – |
| CCOC(=O)c1c(OC(=O)C(C)C)c(OC(=O)C(C)C)c(C(=O)N(C)C)n1-c1ccc(OC)cc1 [UL1-067, 2-(dimethylcarbamoyl)-5-(ethoxycarbonyl)-1-(4-methoxyphenyl)-1H-pyrrole-3,4-diyl bis(2-methylpropanoate)] | – | 10 µM | 0 µM | 0 µM | 0 µM | 0 µM | 20 to 60 µM |
| CCOC(=O)c1c(OC(=O)C(C)(C)COCCCOP(=O)(O)O)c(OC(=O)C(C)(C)COCCCOP(=O)(O)O)c(C(=O)N(C)C)n1-c1ccc(OC)cc1 [UL1-118, 2-(dimethylcarbamoyl)-5-(ethoxycarbonyl)-1-(4-methoxyphenyl)-1H-pyrrole-3,4-diyl bis(2,2-dimethyl-3-(3-(phosphonooxy)propoxy)propanoate)] | – | 10 µM | 6.04 µM | 4.00 µM | 1.68 µM | 0.23 µM | < 10 µM |
| CCOC(=O)c1c(OC(=O)CCOCCOC)c(OC(=O)CCOCCOC)c(C(=O)N(C)C)n1-c1ccc(OC)cc1 [UL1-105, 2-(dimethylcarbamoyl)-5-(ethoxycarbonyl)-1-(4-methoxyphenyl)-1H-pyrrole-3,4-diyl bis(3-(2-methoxyethoxy)propanoate)] | – | 10 µM | 0 µM | 0 µM | 0 µM | 0 µM | < 10 µM |
| CCOC(=O)c1c(O)c(OS(N)(=O)=O)c(C(=O)N(C)C)n1-c1ccc(OC)cc1 [UL1-069, ethyl 5-(dimethylcarbamoyl)-3-hydroxy-1-(4-methoxyphenyl)-4-(sulfamoyloxy)-1H-pyrrole-2-carboxylate] | – | 10 µM | 9.90 µM | 9.70 µM | 9.60 µM | 9.90 µM | < 10 µM |
| CCOC(=O)c1c(OC(=O)N(C)C)c(OC(=O)N(C)C)c(C(=O)N(C)C)n1-c1ccc(OC)cc1 [UL1-063, ethyl 5-(dimethylcarbamoyl)-3,4-bis((dimethylcarbamoyl)oxy)-1-(4-methoxyphenyl)-1H-pyrrole-2-carboxylate] | > 60 µM | 10 µM | 10 µM | 9.20 µM | 9.40 µM | 8.50 µM | – |
| CCOC(=O)c1c(OC(C)=O)c(OC(C)=O)c(C(=O)N(C)C)n1-c1ccc(OC)cc1 [UL1-044, 2-(dimethylcarbamoyl)-5-(ethoxycarbonyl)-1-(4-methoxyphenyl)-1H-pyrrole-3,4-diyl diacetate] | – | 10 µM | 0 µM | 0 µM | 0 µM | 0 µM | < 10 µM |
